The values below come from PubChem BioAssay AID651630 (Sanford-Burnham Center for Chemical Genomics, 2012).

The test system of one assay is DAPI. Put plainly: triacylglycerol accumulation inhibitor potency, dose response, cell-based, panel, Nile Red and DAPI fluorescence, H9c2 (AID 651630).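 Also: cells exposed to compound overnight before fixation and staining.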 As to conditions: H9c2 cells, DAPI nuclear fluorescence (cytotoxicity counter-readout), oleic acid.
A further assay deals with TAG. Described as above. As to conditions: H9c2 cells, Nile Red TAG fluorescence, oleic acid.

Calls of active or inactive are those of the source.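 The calls were made as follows: active = lipid-stain IC50 at or below a set limit, with nuclear-stain toxicity IC50 at least five times higher; inactive = the rest.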

As usually defined, the IC50 is the concentration needed to halve the response being measured. `COc1ccc(CN(C)C[C@@H]2OCCCC[C@H](C)Oc3ccc(NC(=O)Nc4ccc(F)cc4)cc3C(=O)N([C@H](C)CO)C[C@H]2C)cc1`: the IC50 cytotoxicity (DAPI nuclear signal decrease) with DAPI (mean of runs) is > 25 µM (inactive); with DAPI (run 1), greater than 25 µM; in the assay with DAPI (run 2), greater than 25 µM. For the same compound, the results for the IC50 with TAG (run 1) and in the assay with TAG (run 2) were 21.8 µM and greater than 25 µM, respectively.

As for `Cc1ccc2c(c1)-c1c(cnn1CC(=O)Nc1ccccc1N1CCN(C)CC1)CO2`, the IC50 cytotoxicity (DAPI nuclear signal decrease) in the assay on DAPI (mean of runs) is > 25 µM (inactive); in the assay with DAPI (run 1) it was greater than 25 µM; in the assay with DAPI (run 2), greater than 25 µM. The half-maximal inhibitory concentration (IC50) with TAG (run 1) was 24.2 µM; in the assay on TAG (run 2) it was greater than 25 µM.

On to `CCOc1c(Cl)cc(/C=C/C(=O)N(CC)CC(=O)NCc2cccs2)cc1OC`, for which the figures for the IC50 cytotoxicity (DAPI nuclear signal decrease) with DAPI (mean of runs), in the assay on DAPI (run 1) and in the assay on DAPI (run 2) were > 25 µM (inactive), greater than 25 µM and greater than 25 µM, respectively. Besides, the IC50 is 17 µM (inactive) with TAG (mean of runs), 19.2 µM in the assay with TAG (run 1) and 14.8 µM with TAG (run 2).

With `C=CCNc1nc(Nc2ccc(OC)c(OC)c2)c2sc(-c3ccccc3)cc2n1`, the IC50 cytotoxicity (DAPI nuclear signal decrease) with DAPI (mean of runs) was > 25 µM (inactive); with DAPI (run 1), greater than 25 µM; with DAPI (run 2), greater than 25 µM. In addition, the IC50 was 5.16 µM with TAG (mean of runs), 7.19 µM in the assay with TAG (run 1) and 3.13 µM in the assay with TAG (run 2).

For the compound `O=C(Cc1n[nH]c(=O)c2ccccc12)OCC(=O)c1ccc2c(c1)OCCO2`, the IC50 cytotoxicity (DAPI nuclear signal decrease) in the assay on DAPI (mean of runs) was > 25 µM (inactive); with DAPI (run 1), greater than 25 µM; in the assay on DAPI (run 2), greater than 25 µM. Also, the IC50 is > 25 µM (inactive) with TAG (mean of runs), greater than 25 µM in the assay with TAG (run 1) and greater than 25 µM with TAG (run 2).

Take `Cc1ccc2c(=O)n3c(nc2c1)C(Cc1ccc(O)cc1)NC(=O)c1cc2ccccc2cc1-3` (stereo unspecified): the IC50 cytotoxicity (DAPI nuclear signal decrease) with DAPI (mean of runs) was > 25 µM (inactive); with DAPI (run 1) it was greater than 25 µM; in the assay on DAPI (run 2), greater than 25 µM. The IC50 in the assay on TAG (mean of runs) was > 25 µM (inactive); in the assay with TAG (run 1), greater than 25 µM; with TAG (run 2), greater than 25 µM.

Take `O=C1CCCC2=C1C1(CCCC1)N=C(Nc1nc3cc(-c4ccccc4)ccc3o1)N2`: the results for the IC50 cytotoxicity (DAPI nuclear signal decrease) in the assay on DAPI (mean of runs), with DAPI (run 1) and in the assay with DAPI (run 2) were > 25 µM (inactive), greater than 25 µM and greater than 25 µM, respectively. In addition, the IC50 in the assay on TAG (mean of runs) was 17.5 µM (inactive); with TAG (run 1) it was 15.5 µM; with TAG (run 2), 19.5 µM.

For the compound `CCOCCOC(=O)c1[nH]c2c(c1C)C(=O)CC(c1cccs1)C2` (stereo unspecified), the values for the IC50 cytotoxicity (DAPI nuclear signal decrease) with DAPI (mean of runs), in the assay with DAPI (run 1) and with DAPI (run 2) were > 25 µM (inactive), greater than 25 µM and greater than 25 µM, respectively. For the same compound, the values for the IC50 with TAG (mean of runs), with TAG (run 1) and in the assay with TAG (run 2) were > 25 µM (inactive), greater than 25 µM and greater than 25 µM, respectively.

Turning to `Cc1nc(N/N=C/c2cccc(F)c2)cc(N2CCOCC2)n1`, the IC50 cytotoxicity (DAPI nuclear signal decrease) with DAPI (mean of runs) is > 25 µM (inactive); in the assay on DAPI (run 1), greater than 25 µM; in the assay with DAPI (run 2) it was greater than 25 µM. The IC50 in the assay on TAG (mean of runs) was 13.8 µM; with TAG (run 1) it was 10.9 µM; in the assay with TAG (run 2) it was 16.6 µM.

Turning to `Cc1c(C(=O)N2CC3(CC(c4cccc(NC(=O)CC(c5ccccc5)c5ccccc5)c4)=NO3)C[C@@H]2C(N)=O)cc([N+](=O)[O-])cc1[N+](=O)[O-]` (stereo partly specified), the values for the IC50 cytotoxicity (DAPI nuclear signal decrease) in the assay on DAPI (mean of runs), in the assay with DAPI (run 1) and in the assay with DAPI (run 2) were > 25 µM (inactive), greater than 25 µM and greater than 25 µM, respectively. Also, the IC50 is 12.2 µM in the assay with TAG (mean of runs), 11.8 µM with TAG (run 1) and 12.6 µM in the assay on TAG (run 2).

Consider `CSC1=NC(C(Cl)(Cl)Cl)N=C(c2ccc(C)cc2)N1` (stereo unspecified), for which the IC50 cytotoxicity (DAPI nuclear signal decrease) with DAPI (mean of runs) was > 25 µM (inactive); with DAPI (run 1), greater than 25 µM; with DAPI (run 2), greater than 25 µM. The figures for the IC50 with TAG (mean of runs), in the assay with TAG (run 1) and in the assay with TAG (run 2) were > 25 µM (inactive), greater than 25 µM and greater than 25 µM, respectively.

Turning to `COc1ccc(-c2nc(-c3ccccc3)c(-c3cc([N+](=O)[O-])ccc3C)[nH]2)cc1OC`, the IC50 cytotoxicity (DAPI nuclear signal decrease) is > 25 µM (inactive) with DAPI (mean of runs), greater than 25 µM with DAPI (run 1) and greater than 25 µM with DAPI (run 2). Moreover, the IC50 in the assay on TAG (mean of runs) is 12.9 µM; in the assay on TAG (run 1) it was 12 µM; in the assay on TAG (run 2), 13.9 µM.

In the case of `CCCOc1ccc(F)cc1-c1cc(C(=O)NCc2cc(OC)cc(OC)c2)[nH]n1`, the values for the IC50 cytotoxicity (DAPI nuclear signal decrease) in the assay with DAPI (mean of runs), in the assay with DAPI (run 1) and in the assay on DAPI (run 2) were > 25 µM (inactive), greater than 25 µM and greater than 25 µM, respectively. The IC50 in the assay with TAG (mean of runs) was 10.1 µM; in the assay with TAG (run 1), 10.8 µM; with TAG (run 2) it was 9.39 µM.

As to `O=[N+]([O-])c1ccc(Nc2nc(N3CCOCC3)nc(N3CCOCC3)n2)cc1`, the IC50 cytotoxicity (DAPI nuclear signal decrease) in the assay with DAPI (mean of runs) is > 25 µM (inactive); in the assay on DAPI (run 1) it was greater than 25 µM; in the assay on DAPI (run 2), greater than 25 µM. Moreover, the IC50 in the assay with TAG (mean of runs) is 21.4 µM (inactive); with TAG (run 1), 24.2 µM; in the assay on TAG (run 2) it was 18.6 µM.

As for `CC(=O)OC12COC1CC(O)C1(C)C(=O)C(O)C3=C(C)C(O)CC(O)(C(OC(=O)c4ccccc4)C21)C3(C)C` (stereo unspecified), the IC50 cytotoxicity (DAPI nuclear signal decrease) was > 25 µM (inactive) in the assay on DAPI (mean of runs), greater than 25 µM with DAPI (run 1) and greater than 25 µM in the assay with DAPI (run 2). Also, the results for the concentration for half-maximal inhibition (IC50) in the assay on TAG (mean of runs), with TAG (run 1) and with TAG (run 2) were 9.4 µM, 9.73 µM and 9.07 µM, respectively.

For `Cc1cccc2sc(NC(=O)C3CCCN(S(=O)(=O)c4cccc5nonc45)C3)nc12` (stereo unspecified), the figures for the IC50 cytotoxicity (DAPI nuclear signal decrease) in the assay with DAPI (mean of runs), with DAPI (run 1) and in the assay on DAPI (run 2) were > 25 µM (inactive), greater than 25 µM and greater than 25 µM, respectively. The IC50 in the assay with TAG (mean of runs) is 10.5 µM; in the assay on TAG (run 1), 12.2 µM; in the assay on TAG (run 2) it was 8.72 µM.

Turning to `COc1ccc(-c2cc(NC=O)c3ncc(-c4cc(OC)c(OC)c(OC)c4)n3c2)c(OC)c1`, the IC50 cytotoxicity (DAPI nuclear signal decrease) with DAPI (mean of runs) is > 25 µM (inactive); with DAPI (run 1), greater than 25 µM; in the assay on DAPI (run 2), greater than 25 µM. The values for the IC50 with TAG (mean of runs), in the assay with TAG (run 1) and with TAG (run 2) were > 25 µM (inactive), greater than 25 µM and greater than 25 µM, respectively.

Consider `c1cc(C2CCCCC2)ccc1Oc1nc(N2CCOCC2)nc(N2CCOCC2)n1`, for which the IC50 cytotoxicity (DAPI nuclear signal decrease) is > 25 µM (inactive) in the assay with DAPI (mean of runs), greater than 25 µM in the assay with DAPI (run 1) and greater than 25 µM in the assay on DAPI (run 2). Moreover, the IC50 with TAG (mean of runs) was > 25 µM (inactive); with TAG (run 1), greater than 25 µM; in the assay on TAG (run 2) it was greater than 25 µM.

Regarding `O=C1c2ccccc2C(=O)c2c1cccc2N1CCN(C/C=C/c2ccccc2)CC1`, the IC50 cytotoxicity (DAPI nuclear signal decrease) in the assay on DAPI (mean of runs) is > 25 µM (inactive); in the assay on DAPI (run 1), greater than 25 µM; with DAPI (run 2), greater than 25 µM. The IC50 with TAG (run 1) was 23.1 µM; with TAG (run 2), greater than 25 µM.
